Values joined by “and” are separate entries in the source; they are usually repeats but may differ in a detail not shown here. Equal entries are not always repeated.
Legend:
vertebrae and femur = assay: Biomechanical testing of L3 vertebrae (compression) and femur (3-point bending); assay type: in vivo, mouse; settings: for Elastic Modulus (MPa) / Ultimate Stress (MPa) / Yield Stress (MPa): individual mice
Source text: Previously it was established that C57BL/6 J female mice start losing trabecular bone mass naturally after they reach 8 weeks of age, which provides a model to study the anabolic effects of compound on bone metabolism. The use of females provides a test model with low if any basal INSL3 exposure. […] As previously reported, INSL3 induces an increase in Alp in primary human osteoblasts[20] (Supplementary Fig. 11b) while 6641 induces an increase in Osteocalcin expression (Fig. 5b). After micro-CT scanning, these same lumbar spine and femur from 6641- and vehicle-treated mice were utilized for biomechanical testing. The femurs were tested in a 3-point bending test and the L3 vertebrae in a compression test using an ElectroForce 5500 Test Instrument (TA Instruments, New Castle, DE) with a ramp rate of 0.05 mm/sec and support span of 8.1 mm, running […] software version 8.2. Time, force, and displacement were collected for use in the analysis of mechanical and material properties using custom MATLAB codes (MathWorks, Natick, MA). The Moment of Inertia (MoI) was calculated based on the micro-CT measurements. […] Biomechanical material properties in a vertebrae and b femur of vehicle- and compound- treated female mice. 12 and 15 mice were used in the vehicle and compound groups respectively. p = ns (Student's t-test). (1 picture or pasted object on this page, not shown here)

trabecular bone of femur = assay: Micro-CT of trabecular bone in femur after 8-week oral treatment; assay type: in vivo, mouse; set-up: Mat.D / Tb.N / Tb.Th / Tb.Sp / Conn.D: unit not given here
mouse RXFP1 = target: T1, mouse RXFP1 (Mus musculus, UniProt Q6R6I7); assay: HTRF cAMP counter-screen in HEK293T cells expressing mouse RXFP1; assay type: cell-based; settings: for % Eff (cAMP): mouse RXFP1, experiments (1)-(3)
T1 construct: FLAG (N); expressed in transfected cells
T1 sequence (Q6R6I7 1-758): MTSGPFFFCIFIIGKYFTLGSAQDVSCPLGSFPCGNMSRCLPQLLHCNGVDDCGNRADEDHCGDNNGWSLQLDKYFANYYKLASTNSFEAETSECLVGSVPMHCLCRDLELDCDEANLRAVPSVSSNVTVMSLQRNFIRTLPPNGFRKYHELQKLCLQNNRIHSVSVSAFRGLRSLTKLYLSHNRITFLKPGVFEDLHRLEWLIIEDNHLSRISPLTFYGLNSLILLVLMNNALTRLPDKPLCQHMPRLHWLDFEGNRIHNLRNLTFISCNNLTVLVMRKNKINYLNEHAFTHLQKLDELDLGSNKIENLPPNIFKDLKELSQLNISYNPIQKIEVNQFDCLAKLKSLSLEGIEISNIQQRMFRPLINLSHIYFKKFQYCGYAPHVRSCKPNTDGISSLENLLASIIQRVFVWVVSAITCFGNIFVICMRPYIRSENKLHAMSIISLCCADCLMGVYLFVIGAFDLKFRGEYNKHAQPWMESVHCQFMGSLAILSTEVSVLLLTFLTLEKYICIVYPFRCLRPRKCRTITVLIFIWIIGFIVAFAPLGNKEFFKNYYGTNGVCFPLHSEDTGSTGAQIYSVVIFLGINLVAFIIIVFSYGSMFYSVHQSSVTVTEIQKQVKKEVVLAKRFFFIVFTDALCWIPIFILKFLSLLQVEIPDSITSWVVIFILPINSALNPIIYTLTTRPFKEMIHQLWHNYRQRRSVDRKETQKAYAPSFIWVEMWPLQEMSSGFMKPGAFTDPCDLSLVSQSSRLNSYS
Protocol: The HTRF Gs dynamic cAMP assay kit (CisBio, Bedford, MA) was used to measure intracellular cAMP accumulation in HEK293T cells (ATCC, Manassas, VA)[56]. […] The cell stock was verified mycoplasma free and authenticated by ATCC. Transient transfection was accomplished by treating cells in a 6-well plate with a mixture of 2 μg plasmid and 6 μL Lipofectamine 2000 (Invitrogen, Waltham, MA) per manufacturer’s protocol and incubating overnight. For cAMP measurement in 96-well format, HEK293T cells stably transfected with human RXFP2 (HEK-RXFP2), human RXFP1 (HEK-RXFP1), mouse Rxfp1 (HEK-Rxfp1) or transiently transfected with human RXFP1-RXFP2 chimeric receptors were seeded between 7500 and 30,000 cells per well, depending on cell line responsiveness, in serum-free DMEM medium and incubated overnight at 37 °C, 5% CO2. After 18 h, cells were treated with a titration of compound, 2 μM forskolin, or DMSO vehicle. Control wells were also treated with a titration of INSL3 (Phoenix Pharmaceuticals, Burlingame, CA) or human recombinant relaxin 2 (Peprotech, Cranbury, NJ). For the RXFP2 antagonist experiment, cells were co-treated with 0.28 μM compound or 30 nM INSL3 and a titration of the INSL3 B dimer antagonist[38],[39]. For the INSL3 allosteric modulation experiment, cells were co-treated with 0.025, 0.0025, or 0.00025 μM of compound and a titration of INSL3. Cells were incubated for 1 h at 37 °C, 5% CO2, and then kit cAMP-d2 and anti-cAMP antibody were added per manufacturer protocol. Plates were incubated for 1 h at room temperature and the signal was read on a CLARIOstar plate reader (BMG Labtech, Ortenberg, Germany) at 665 and 620 nm emission wavelengths. […]
receptors. HTRF cAMP counter-screen of RXFP2 agonists in HEK293T cells expressing a human RXFP1 and b mouse RXFP1. Relaxin 2 was used as positive control for RXFP1 receptor activation. Results are expressed as mean ± SEM of 3

[1] = 10 mg/kg PO 3 times per week, 8 weeks
[2] = Supplementary Figure 15a, L3 vertebrae compression
[3] = Supplementary Figure 15b, femur 3-point bending
[4] = femur trabecular bone, 8-week oral treatment, individual mice

O=C1Nc2ccc(-c3cc(C(F)(F)F)cc(C(F)(F)F)c3)cc2C(=O)N2CCN(C(=O)COc3ccc(OC(F)(F)F)cc3I)C[C@@H]12 [compound 6641]
biomechanical properties of vertebrae and femur (vertebrae and femur; [1]): no changes
Elastic Modulus (MPa) (vertebrae and femur; [2]): 153.265 MPa and 132.946 MPa and 187.209 MPa and 254.765 MPa and 121.079 MPa and 235.799 MPa and 193.606 MPa and 184.897 MPa and 170.559 MPa and 170.73 MPa and 159.611 MPa and 225.093 MPa and 77.447 MPa and 155.764 MPa and 159.911 MPa
Ultimate Stress (MPa) (vertebrae and femur; [2]): 14.1661 MPa and 20.1523 MPa and 16.2174 MPa and 22.2452 MPa and 21.0001 MPa and 22.5708 MPa and 23.224 MPa and 14.0488 MPa and 8.99 MPa and 16.5244 MPa and 23.9179 MPa and 31.2724 MPa and 15.8471 MPa and 17.3612 MPa and 20.3053 MPa
Yield Stress (MPa) (vertebrae and femur; [2]): 13.761 MPa and 16.4161 MPa and 15.4319 MPa and 20.1436 MPa and 20.5667 MPa and 22.2148 MPa and 17.2035 MPa and 13.8315 MPa and 7.519 MPa and 16.2742 MPa and 23.3124 MPa and 30.0585 MPa and 14.6642 MPa and 10.8847 MPa and 20.2754 MPa
Elastic Modulus (MPa) (vertebrae and femur; [3]): 7398.92 MPa and 8063.16 MPa and 7172.9 MPa and 5490.74 MPa and 6726.89 MPa and 7530 MPa and 6047.64 MPa and 5378.62 MPa and 5004.38 MPa and 6512.17 MPa and 8227.03 MPa and 6891.88 MPa and 7622.53 MPa and 6100.62 MPa and 7209.2 MPa
Ultimate Stress (MPa) (vertebrae and femur; [3]): 125.43 MPa and 114.53 MPa and 121.49 MPa and 120.23 MPa and 113.48 MPa and 123.54 MPa and 148.86 MPa and 112.5 MPa and 116.79 MPa and 97.01 MPa and 135.98 MPa and 139.67 MPa and 122.96 MPa and 105.85 MPa and 123.21 MPa
Yield Stress (MPa) (vertebrae and femur; [3]): 75.91 MPa and 60.78 MPa and 69.18 MPa and 62.13 MPa and 66.41 MPa and 57.07 MPa and 119.15 MPa and 57.74 MPa and 99.95 MPa and 60.92 MPa and 107.1 MPa and 79.8 MPa and 112.52 MPa and 62.12 MPa and 77.2 MPa
femur trabecular parameters (micro-CT) (trabecular bone of femur; [1]): no changes
BV/TV (%) (trabecular bone of femur; [4]): 4.31% and 3.06% and 3.16% and 4.83% and 2.23% and 3.75% and 3.15% and 4.04% and 1.79% and 1.82% and 3.85% and 4.53% and 2.18% and 3.86% and 3.36%
Conn.D (trabecular bone of femur; [4]): 30.1255 and 5.8494 and 15.74 and 19.1725 and 7.6938 and 27.3442 and 18.8338 and 25.1693 and 0 and -0.6363 and 15.6001 and 25.2137 and 3.3792 and 27.5856 and 14.5139
Mat.D (trabecular bone of femur; [4]): 834.454 and 848.06 and 875.94 and 870.004 and 796.836 and 823.449 and 732.807 and 765.822 and 734.474 and 726.404 and 778.428 and 781.83 and 731.073 and 806.374 and 872.538
Tb.N (trabecular bone of femur; [4]): 3.0955 and 3.1972 and 2.9789 and 2.9022 and 2.8329 and 3.2718 and 2.9757 and 3.3227 and 2.8446 and 3.0319 and 3.0922 and 3.1695 and 2.9848 and 3.092 and 2.9537
Tb.Sp (trabecular bone of femur; [4]): 0.3236 and 0.3094 and 0.3391 and 0.3456 and 0.3545 and 0.3064 and 0.3348 and 0.3029 and 0.3454 and 0.3314 and 0.3266 and 0.317 and 0.3334 and 0.3226 and 0.3354
Tb.Th (trabecular bone of femur; [4]): 0.0422 and 0.0404 and 0.0416 and 0.0484 and 0.033 and 0.037 and 0.035 and 0.0363 and 0.0299 and 0.0308 and 0.0384 and 0.0447 and 0.0326 and 0.0382 and 0.0437
activation of mouse RXFP1 receptor (mouse RXFP1; HTRF cAMP): do not activate
% Eff (cAMP) (mouse RXFP1; Log [M] -4.60): -2.207% and -2.077% and -4.472%
% Eff (cAMP) (mouse RXFP1; Log [M] -5.60): -1.251% and -0.3652% and -2.403%
% Eff (cAMP) (mouse RXFP1; Log [M] -6.60): -1.454% and 0.6194% and -2.041%
% Eff (cAMP) (mouse RXFP1; Log [M] -7.60): -0.3802% and -0.7758% and -2.5668%
